Measured values taken from ChEMBL document CHEMBL1136686 (Bioorg Med Chem Lett, 2003).

How the values were obtained:
Progesterone receptor [1] = target: T1, Progesterone receptor (Homo sapiens, UniProt P06401); test: Inhibition of [3H]P4 binding at progesterone receptor of human T47D breast carcinoma cells; type: cell-based
T1 sequence (P06401 whole entry): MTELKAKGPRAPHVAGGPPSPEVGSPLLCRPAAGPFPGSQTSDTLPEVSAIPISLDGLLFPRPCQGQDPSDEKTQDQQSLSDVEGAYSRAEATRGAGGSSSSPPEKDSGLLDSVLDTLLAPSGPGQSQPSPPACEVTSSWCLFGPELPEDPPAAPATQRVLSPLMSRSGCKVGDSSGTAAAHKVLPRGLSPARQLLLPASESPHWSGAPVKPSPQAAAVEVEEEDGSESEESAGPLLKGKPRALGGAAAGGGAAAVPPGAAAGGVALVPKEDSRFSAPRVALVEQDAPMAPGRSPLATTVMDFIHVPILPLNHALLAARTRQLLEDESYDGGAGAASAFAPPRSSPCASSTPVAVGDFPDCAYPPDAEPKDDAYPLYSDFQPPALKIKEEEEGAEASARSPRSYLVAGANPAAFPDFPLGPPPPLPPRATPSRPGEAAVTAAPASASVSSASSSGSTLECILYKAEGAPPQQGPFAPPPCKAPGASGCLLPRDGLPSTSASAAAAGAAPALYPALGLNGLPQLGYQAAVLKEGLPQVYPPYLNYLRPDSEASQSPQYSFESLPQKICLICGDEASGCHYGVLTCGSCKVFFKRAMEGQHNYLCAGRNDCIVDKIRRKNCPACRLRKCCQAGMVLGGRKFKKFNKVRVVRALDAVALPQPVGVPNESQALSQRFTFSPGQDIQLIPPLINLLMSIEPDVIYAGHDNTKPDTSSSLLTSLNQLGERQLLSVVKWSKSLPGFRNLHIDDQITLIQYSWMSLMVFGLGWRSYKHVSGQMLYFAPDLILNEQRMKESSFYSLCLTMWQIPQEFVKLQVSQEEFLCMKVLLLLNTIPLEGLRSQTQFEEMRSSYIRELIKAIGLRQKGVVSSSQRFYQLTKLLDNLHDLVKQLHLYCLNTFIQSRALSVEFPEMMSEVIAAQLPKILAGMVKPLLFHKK

Progesterone receptor [2] = target: T1, Progesterone receptor; test: Effective concentration on alkaline phosphatase activity in human T47D breast carcinoma cell line.; type: functional, cell-based
Progesterone receptor [3] = target: T1, Progesterone receptor; test: Inhibition of [3H]P4 to progesterone receptor (PR) of human T47D breast carcinoma cells; type: cell-based
[4] = target: T2, Progesterone receptor (Rattus norvegicus) (UniProt Q63449); test: Effective dose on oral administration in ovariectomized female rat decidualization model; type: functional, organism-based
T2 sequence (whole entry): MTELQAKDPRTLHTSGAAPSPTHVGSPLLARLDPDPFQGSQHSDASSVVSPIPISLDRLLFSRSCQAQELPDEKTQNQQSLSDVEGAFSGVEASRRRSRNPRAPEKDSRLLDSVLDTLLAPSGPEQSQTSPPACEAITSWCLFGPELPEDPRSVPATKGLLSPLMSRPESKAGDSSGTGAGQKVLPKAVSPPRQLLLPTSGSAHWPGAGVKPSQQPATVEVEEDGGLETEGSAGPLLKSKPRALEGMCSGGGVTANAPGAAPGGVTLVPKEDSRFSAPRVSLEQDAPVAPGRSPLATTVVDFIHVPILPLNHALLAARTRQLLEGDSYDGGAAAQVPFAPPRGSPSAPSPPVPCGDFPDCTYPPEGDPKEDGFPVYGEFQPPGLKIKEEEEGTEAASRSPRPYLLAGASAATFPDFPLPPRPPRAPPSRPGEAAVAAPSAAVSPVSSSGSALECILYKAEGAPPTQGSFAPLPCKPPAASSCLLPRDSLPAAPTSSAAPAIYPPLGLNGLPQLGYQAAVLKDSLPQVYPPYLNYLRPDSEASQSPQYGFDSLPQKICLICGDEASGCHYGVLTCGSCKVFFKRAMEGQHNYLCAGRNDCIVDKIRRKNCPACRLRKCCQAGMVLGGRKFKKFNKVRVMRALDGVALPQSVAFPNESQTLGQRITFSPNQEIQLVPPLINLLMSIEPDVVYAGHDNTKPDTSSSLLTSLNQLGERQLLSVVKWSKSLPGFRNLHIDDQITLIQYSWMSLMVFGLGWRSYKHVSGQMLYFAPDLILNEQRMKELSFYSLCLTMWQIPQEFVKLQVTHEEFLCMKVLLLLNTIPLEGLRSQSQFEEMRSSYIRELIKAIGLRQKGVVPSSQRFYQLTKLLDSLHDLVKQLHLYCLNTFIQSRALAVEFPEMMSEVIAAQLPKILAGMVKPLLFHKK

[5] = target: T2, Progesterone receptor (Rattus norvegicus); test: Effective dose on subcutaneous administration in ovariectomized female rat decidualization model; type: functional, organism-based

Row | Structure (SMILES) | EC50 (Progesterone receptor [2]) | other results
1 | Cc1cc(Br)cc(-c2ccc3c(c2)C(C)(C)OC(=S)N3)c1 | > 10 µM | IC50 (Progesterone receptor [1]): 0.1 µM
2 | CC1(C)OC(=S)Nc2c(F)cc(-c3cc(F)cc(C#N)c3)cc21 | 1 µM | 
3 | CN1C(=S)OC(C)(C)c2cc(-c3cc(F)cc(Br)c3)ccc21 | > 10 µM | IC50 (Progesterone receptor [3]): 0.1 µM
4 | CC1(C)OC(=S)Nc2ccc(-c3cc(Cl)cc(C#N)c3)cc21 | 0.0449 µM | 
5 | CN1C(=S)OC(C)(C)c2cc(-c3cccc(Br)c3)ccc21 | > 10 µM | IC50 (Progesterone receptor [3]): 0.114 µM
6 | CC1(C)OC(=S)Nc2ccc(-c3ccc(F)c(Cl)c3)cc21 | 0.0795 µM | 
7 | CC1(C)OC(S)=Nc2ccc(-c3cc(C#N)cc(OC(F)(F)F)c3)cc21 | > 10 µM | IC50 (Progesterone receptor [1]): 0.1 µM
8 | CC1(C)OC(S)=Nc2ccc(-c3ccc(C#N)s3)cc21 |  | ED50 [4]: 1.5 mg/kg
9 | SC1=Nc2ccc(-c3cccc(Cl)c3)cc2C(Cc2ccccc2)(Cc2ccccc2)O1 | 1 µM | 
10 | CC1(C)OC(=S)Nc2ccc(-c3cc(Cl)cc(Cl)c3)cc21 | 0.0265 µM | 
11 | CCN1C(=S)OC(C)(C)c2cc(-c3cc(F)cc(C#N)c3)ccc21 | > 10 µM | IC50 (Progesterone receptor [3]): 0.1 µM
12 | CC1(C)OC(S)=Nc2ccc(-c3cc(F)cc(C#N)c3)cc21 |  | ED50 [4]: 0.1 mg/kg
13 | CC1(Cc2ccccc2)OC(=S)Nc2ccc(-c3cccc(Cl)c3)cc21 (configuration not stated) | 0.0885 µM | 
14 | CC1(C)OC(S)=Nc2ccc(-c3cc(C#N)cc(C#N)c3)cc21 | 0.042 µM | 
15 | CC1(C)OC(=S)Nc2ccc(-c3ccccc3F)cc21 | 0.0116 µM | 
16 | CC1(C)OC(S)=Nc2c(Br)cc(-c3ccc(Cl)c(F)c3)cc21 | 1 µM | 
17 | CC1(C)OC(=S)Nc2ccc(-c3ccccc3Cl)cc21 | 0.0498 µM | 
18 | CC1OC(=S)Nc2ccc(-c3cccc(F)c3)cc21 (configuration not stated) | 0.3 µM | 
19 | CC1(C)OC(=S)Nc2ccc(-c3cc(Br)cc(OC(F)(F)F)c3)cc21 | > 10 µM | IC50 (Progesterone receptor [1]): 0.1 µM
20 | CC1(C)OC(=S)Nc2c(Br)cc(-c3cc(F)cc(C#N)c3)cc21 | 0.0801 µM | 
21 | CC1(C)OC(S)=Nc2c(Br)cc(-c3ccc(C#N)c(F)c3)cc21 | > 10 µM | 
22 | Cc1cc(C#N)cc(-c2ccc3c(c2)C(C)(C)OC(=S)N3)c1 | 0.2 µM | 
23 | CC1(C)OC(S)=Nc2ccc(-c3csc(C#N)c3)cc21 |  | ED50 [5]: 0.22 mg/kg; ED50 [4]: 0.62 mg/kg
24 | COc1cc(C#N)cc(-c2ccc3c(c2)C(C)(C)OC(=S)N3)c1 | > 10 µM | IC50 (Progesterone receptor [1]): 0.1 µM
25 | CC1(C)OC(S)=Nc2ccc(-c3cc(Br)cc(C#N)c3)cc21 | > 10 µM | IC50 (Progesterone receptor [1]): 0.1 µM

Second part, led by results:

Row | EC50 (Progesterone receptor [2]) | Structure (SMILES) | other results
26 | 0.001 µM | CC1(C)OC(=S)Nc2ccc(-c3cccc(F)c3)cc21 | 
27 | 0.00125 µM | CC1(C)OC(=S)Nc2ccc(-c3ccc(C#N)o3)cc21 | 
28 | 0.0047 µM | CCC1(CC)OC(=S)Nc2ccc(-c3cccc([N+](=O)[O-])c3)cc21 | 
29 | 0.0012 µM | CC1(C)OC(=S)Nc2ccc(-c3coc(C#N)c3)cc21 | 
30 | 0.0025 µM | CC1(C)OC(=S)Nc2ccc(-c3cccc(Br)c3)cc21 | 
31 | 0.0017 µM | CC1(C)OC(=S)Nc2ccc(-c3cc(F)cc(Br)c3)cc21 | 
32 | 0.0057 µM | CC1(c2ccccc2)OC(=S)Nc2ccc(-c3cccc(Cl)c3)cc21 (configuration not stated) | 
33 | 0.0072 µM | COc1cccc(-c2ccc3c(c2)C(C)(C)OC(=S)N3)c1 | 
34 | 0.0025 µM | CC1(C)OC(=S)Nc2ccc(-c3cc(F)cc(C(F)(F)F)c3)cc21 | 
35 | 0.0003 µM | C=CCC1(C)OC(=S)Nc2ccc(-c3cccc(Cl)c3)cc21 (configuration not stated) | 
36 | 0.0007 µM | CC1(C)OC(=S)Nc2ccc(-c3ccc(C#N)s3)cc21 | 
37 | 0.0015 µM | CC1(C)OC(=S)Nc2ccc(-c3cccc(F)c3F)cc21 | 
38 | 0.0011 µM | CC1(C)OC(=S)Nc2ccc(-c3cccc([N+](=O)[O-])c3)cc21 | 
39 | 0.0025 µM | N#Cc1cccc(-c2ccc3c(c2)C2(CCCCC2)OC(=S)N3)c1 | 
40 | 0.0004 µM | CC1(C)OC(=S)Nc2ccc(-c3cccc(C#N)c3)cc21 | 
41 | 0.0009 µM | CC1(C)OC(S)=Nc2ccc(-c3cc(F)cc(Cl)c3)cc21 | 
42 | 0.0057 µM | CC1(C)OC(=S)Nc2ccc(-c3cncc(Br)c3)cc21 | 
43 | 0.0114 µM | CC1(C)OC(=S)Nc2ccc(-c3ccc(F)c(F)c3)cc21 | 
44 | 0.0017 µM | CC1(C)OC(=S)Nc2ccc(-c3cccc(Cl)c3)cc21 | 
45 | 0.0015 µM | CC1(C)OC(=S)Nc2ccc(-c3cc(F)cc(F)c3)cc21 | 
46 | 0.0006 µM | CC1(C)OC(=S)Nc2ccc(-c3cc(F)cc(C#N)c3)cc21 | 
47 | 0.0072 µM | CCC1(CC)OC(=S)Nc2ccc(-c3cccc(Cl)c3)cc21 | 
48 | 0.0026 µM | COc1cc(F)cc(-c2ccc3c(c2)C(C)(C)OC(=S)N3)c1 | 
